In patent US20060127505A1, “Anti-inflammatory formulations” (priority 2002, published 2006):
“Also recorded” adds a separate entry of the source. Structures can show the parent of a compound that is named as a salt. Marks after values point to notes of the source that are not given here.

Key:
[1] = system: CD3+CD25+ cells in human PBMC; assay: T lymphocyte activation (CD3+CD25+) in PHA-stimulated PBMC of asthma patients (Example 6); type: cell-based; conditions: PHA 50 μg/ml, 24 hours; 10^−5 M
Procedure: Experiments were carried out to determine whether formulations based on the platelet activating factor receptor (PAFR) antagonist and free radical scavenger Ginkgolide B (GB) in combination with the antioxidant carotenoid astaxanthin (ASX) suppress T cell activation in the same dose range as two commonly-used antihistamines: cetirizine dihydrochloride (CTZ/Zyrtec) and azelastine ([…]). […] Results are reported as stimulation indices (SI) of % CD3+CD25+ cells in cultures treated with PHA alone to % CD3+CD25+ cells in each drug-supplemented culture. […] Subjects for this study included 12 patients diagnosed with atopic asthma, 7 male and 5 female, ranging in age from 21 to 40 years (mean 28±1.8 years). Disease duration ranged from 2 to 12 years. Atopy was defined on the basis of one or more positive skin prick tests to a range of 20 allergens. None of the patients had received systemic therapy for at least 6 weeks prior to blood collection. The mean serum IgE was 335 (170-480) IU/ml. Venous blood for each subject was collected in polyethylene tubes containing EDTA during a one hour morning time interval. PBMC were separated by Ficoll-paque (Pharmacia, Uppsala, Sweden) density gradient centrifugation. Cells were washed and suspended in RPMI 1640 medium (Gibco BRL, Gaithersburg, Md.) at density of 1×10^6 cells/ml. PBMC were stimulated with 50 μg/ml Phytohemaglutinin (PHA) (Sigma Immunopharmaceuticals, St. Lous Mo.), or PHA plus 10^-8-10^-5 M astaxanthin (Natural Alternatives International (NAI) Inc., San Marcos Calif.); or ginkgolide B 10^-8-10^-6 M (NAI San Marcos Calif.); or selected combinations of ASX plus GB. Comparison of ASX and GB effects on T cell activation were made with two other pharmacological agents with anti-asthmatic properties by treating cells with 10^-7-10^-4 M cetirizine dihydrochloride (Pfizer Pharmaceuticals, Norwich Conn.); or 10^-7-10^-4 M azalestine hydrochloride (Wallace Pharmaceuticals, Somerset N.J.), followed by evaluation of cultures for the same biological endpoints as ASX/GB-treated cells. Each reagent was added at the outset of a 24 hours culture period, followed by harvest of cellular fraction for immunophenotyping studies. […] Two-color Flow cytometry was conducted using a Coulter Epics XL automated flow cytometer (Coulter Scientific, Hialeah, Fla., USA). Isotypic controls for the monoclonal antibodies (mAb) used to detect antigens of interest were established for each cell preparation. Positive analysis regions for cells expressing specific surface markers were set against controls and specific binding of fluorophore-conjugated mAb was analyzed by cytofluorography according to standard methods recommended by the manufacturer. Lymphocyte subpopulations were identified by position on forward and side scatter plots and live-gated. Expression of each antigen was reported as percentage cells positive for a particular T cell subpopulation defined by expression of CD3 (T lymphocyte marker) plus CD25, plus or minus standard error. Statistical analysis was performed using an independent t-test. All statistical analyses were performed using the SPSS for Windows statistical package (Norusis/SPSS, Inc.). […] The capacity of formulations evaluated in this study to suppress immune activation was measured as a stimulation index (SI), defined as the ratio of […].

[2] = system: CD3+CD25+ T lymphocytes in human PBMC; assay: PHA induction of CD25+ on CD3+ T cells, PBMC from asthma patients (Example 5); type: cell-based; conditions: for SI CD25: PHA 50 μg/ml, 24 hours
Procedure: (§1) Experiments were carried out to determine whether the immunoregulatory capacity of two commonly-used H1-inhibitory antihistamines: cetirizine dihydrochloride (CTZ/Zyrtec) and azelastine ([…]) is potentiated by the platelet activating factor receptor (PAFR) antagonist and free radical scavenger Ginkgolide B (GB). […] Each drug was first evaluated independently over a 3-log dose range from 10^-8-10^-6 M.

[3] = system: CD3+HLA-DR+ T lymphocytes in human PBMC; assay: PHA induction of HLA-DR+ on CD3+ T cells, PBMC from asthma patients (Example 5); type: cell-based; conditions: for SI HLA-DR: PHA 50 μg/ml, 24 hours
Procedure: as §1

[4] = system: ovalbumin(OA)-induced asthma in guinea pigs; assay: Ovalbumin-induced asthma in guinea pigs: inflammatory cells in BAL fluid; type: in vivo, guinea pig; conditions: for Eosinophils / Macrophages / Neutrophils: BAL fluid 24 hours after OV challenge
Procedure: The effect combinations of vitamin C, astaxanthin, and ginkolide on asthma-associated disease parameters ovalbumin(OA)-induced asthma in guinea pigs was evaluated. Twenty-four hours following OA challenge, animals are sacrificed and numbers of inflammatory cells (eosinophils, neutrophils, macrophages) are measured in bronchoalveolar lavage (BAL) fluid; and cAMP and cGMP concentrations in the lung tissue. The experiments were carried out as follows. Male Hartley guinea pigs (250-350 g) were sensitized by intramuscular injections of 0.35 ml of a 5% (W/V) ovalbumin (OA)/saline solution into each thigh on days 1 and 4. Guinea pigs were ready for asthmatic challenge after 25 days of ovalbumin injection. Asthmatic challenge was carried out with ovalbumin aerosol, and bronchoalveolar lavage (BAL) was done 24 hours later. The numbers of eosinophils, neutrophils, and macrophages in the BAL fluid were counted. Twenty-four hours after the aerosol OA challenge, guinea pigs were killed by cervical dislocation and exsanguinated by severing the axillary arteries. Lungs were lavaged with 50 ml of DulBecco's phosphate-buffered saline (aliquots of 10 ml), which were aspirated after gentle chest massage. BAL fluid was centrifuged at 2200 rpm (1100×g) for 10 min, supernatant was aspirated, and pellets were resuspended in 5 ml 0.25% NaCl to lyse residual erythrocytes. This dispersion was centrifuged at 2200 rpm (1100×g) for 10 min, supernatant was aspirated, and pellets were resuspended 5 ml 0.9% NaCl. Total cell counts were done by hemocytometry using trypan blue stain. Slides were prepared on a Shandon Cytospin 2 (Pittsburgh, Pa.) at 300 rpm for 5 min, fixed and stained. Differential cell counts were done using standard morphologic criteria to classify cells as eosinophils, neutrophils, or macrophages, and the results were expressed in cell numbers. The dose-responsive effect of AX, EGb761, and vitamin C administered independently for suppression of asthma-associated parameters in allergen-induced, asthmatic guinea pigs was determined. Ibuprophen (IB) was used as the positive control. Concentration of inflammatory cells in bronchoalveolar lavage (BAL) fluid and levels of cAMP and cGMP in lung tissue were measured in guinea pigs 24 hours following challenge with OV. Data is reported as mean±SD of measurements taken in 6 animals per dosage cohort. *p<0.05 compared to corresponding values of OV antigen-challenged, drug-free control group. The dose-responsive effect of AX, EGb761, and vitamin C administered in combination for suppression of asthma-associated parameters in allergen-induced, asthmatic guinea pigs was determined. The combination of these three components was given each day for each guinea pig as a “cocktail”. Concentration of inflammatory cells in bronchoalveolar lavage (BAL) fluid and levels of cAMP and cGMP in lung tissue were measured in guinea pigs 24 hours following challenge with OV. Data is reported as mean±SD of measurements taken in 6 animals per dosage cohort. *p<0.05 compared to corresponding values of OV antigen-challenged, drug-free control group.

[5] = system: cAMP and cGMP concentrations in the lung tissue; assay: Ovalbumin-induced asthma in guinea pigs: cAMP and cGMP in lung tissue (radioimmunoassay); type: in vivo, guinea pig; conditions: lung tissue 24 hours after OV challenge
Procedure: The effect combinations of vitamin C, astaxanthin, and ginkolide on asthma-associated disease parameters ovalbumin(OA)-induced asthma in guinea pigs was evaluated. Twenty-four hours following OA challenge, animals are sacrificed and numbers of inflammatory cells (eosinophils, neutrophils, macrophages) are measured in bronchoalveolar lavage (BAL) fluid; and cAMP and cGMP concentrations in the lung tissue. The experiments were carried out as follows. Male Hartley guinea pigs (250-350 g) were sensitized by intramuscular injections of 0.35 ml of a 5% (W/V) ovalbumin (OA)/saline solution into each thigh on days 1 and 4. Guinea pigs were ready for asthmatic challenge after 25 days of ovalbumin injection. Asthmatic challenge was carried out with ovalbumin aerosol, and bronchoalveolar lavage (BAL) was done 24 hours later. The numbers of eosinophils, neutrophils, and macrophages in the BAL fluid were counted. Biopsies from lung tissues, cAMP and cGMP were measured using commercially available radioimmunoassay kits (Amersham). Immediately after sampling, lung biopsies were frozen by means of a Wollenberger clamp prechilled in liquid nitrogen. Samples were powdered with a pestle and mortar in liquid nitrogen and trichloro acetic acid (TCA) was added to the powdered frozen samples ([…] of tissue). Samples were further homogenized in the frozen TCA in the braying mortar and then centrifuged at 14,000×g for 10 min at 4° C. The supernatants were extracted 6 times in water-saturated diethylether, evaporated and assayed for cGMP by radioimmunoassay using liquid scintillation counter (Packard, Tri-Carb 2100TR). The dose-responsive effect of AX, EGb761, and vitamin C administered independently for suppression of asthma-associated parameters in allergen-induced, asthmatic guinea pigs was determined. Ibuprophen (IB) was used as the positive control. Concentration of inflammatory cells in bronchoalveolar lavage (BAL) fluid and levels of cAMP and cGMP in lung tissue were measured in guinea pigs 24 hours following challenge with OV. […] The dose-responsive effect of AX, EGb761, and vitamin C administered in combination for suppression of asthma-associated parameters in allergen-induced, asthmatic guinea pigs was determined. The combination of these three components was given each day for each guinea pig as a “cocktail”. Concentration of inflammatory cells in bronchoalveolar lavage (BAL) fluid and levels of cAMP and cGMP in lung tissue were measured in guinea pigs 24 hours following challenge with OV.

O=C(O)COCCN1CCN(C(c2ccccc2)c2ccc(Cl)cc2)CC1 (centres unmarked) [CTZ, cetirizine dihydrochloride]
SI (CD3+CD25+) [1]: 0.78±0.11 | decrease in SI for CD25+ ([2]; 10^−8 M): 29% | SI CD25 ([2]; 10^−6 M): 0.93 ± 0.06 | SI CD25 ([2]; 10^−7 M): 0.88 ± 0.14 | SI CD25 ([2]; 10^−8 M): 0.71 ± 0.12 | decrease in SI for HLA-DR ([3]; 10^−8 M): 53% | SI HLA-DR ([3]; 10^−6 M): 0.70 ± 0.04 | SI HLA-DR ([3]; 10^−7 M): 0.58 ± 0.11 | SI HLA-DR ([3]; 10^−8 M): 0.47 ± 0.13

CC(C)Cc1ccc(C(C)C(=O)O)cc1 (centres unmarked) [IB, Ibuprophen, reference compound]
Eosinophils ([4]; 10 mg/kg): 5.4 ± 0.8 cell × 10^6/animal | Macrophages ([4]; 10 mg/kg): 9.5 ± 0.8 cell × 10^6/animal | Neutrophils ([4]; 10 mg/kg): 5.7 ± 0.7 cell × 10^5/animal | Eosinophils ([4]; 100 mg/kg): 4.7 ± 0.6 cell × 10^6/animal | Macrophages ([4]; 100 mg/kg): 9.0 ± 1.3 cell × 10^6/animal | Neutrophils ([4]; 100 mg/kg): 5.0 ± 0.7 cell × 10^5/animal | Eosinophils ([4]; 500 mg/kg): 3.0 ± 0.8* cell × 10^6/animal | Macrophages ([4]; 500 mg/kg): 4.7 ± 1.3* cell × 10^6/animal | Neutrophils ([4]; 500 mg/kg): 3.1 ± 0.9* cell × 10^5/animal | Eosinophils ([4]; 1000 mg/kg): 2.9 ± 0.5* cell × 10^6/animal | Macrophages ([4]; 1000 mg/kg): 4.3 ± 0.9* cell × 10^6/animal | Neutrophils ([4]; 1000 mg/kg): 3.1 ± 0.5* cell × 10^5/animal | cAMP ([5]; 10 mg/kg): 7.1 ± 0.6 pmol (mg protein)^−1 | cGMP ([5]; 10 mg/kg): 1.1 ± 0.2 pmol (mg protein)^−1 | cAMP ([5]; 100 mg/kg): 7.3 ± 0.9 pmol (mg protein)^−1 | cGMP ([5]; 100 mg/kg): 1.1 ± 0.2 pmol (mg protein)^−1 | cAMP ([5]; 500 mg/kg): 8.2 ± 0.8 pmol (mg protein)^−1 | cGMP ([5]; 500 mg/kg): 1.4 ± 0.2 pmol (mg protein)^−1 | cAMP ([5]; 1000 mg/kg): 8.1 ± 0.9 pmol (mg protein)^−1 | cGMP ([5]; 1000 mg/kg): 1.6 ± 0.2 pmol (mg protein)^−1

CN1CCCC(n2nc(Cc3ccc(Cl)cc3)c3ccccc3c2=O)CC1 (centres unmarked) [AZE, azelastine]
SI (CD3+CD25+) [1]: 0.76±0.12 | decrease in SI for CD25+ ([2]; 10^−8 M): 19% | SI CD25 ([2]; 10^−6 M): 1.13 ± 0.15 | SI CD25 ([2]; 10^−7 M): 0.88 ± 0.08 | SI CD25 ([2]; 10^−8 M): 0.81 ± 0.08 | decrease in SI for HLA-DR ([3]; 10^−8 M): 45% | SI HLA-DR ([3]; 10^−6 M): 0.61 ± 0.13 | SI HLA-DR ([3]; 10^−7 M): 0.56 ± 0.10 | SI HLA-DR ([3]; 10^−8 M): 0.55 ± 0.09

O=C1O[C@H]([C@@H](O)CO)C(O)=C1O [Vitamin C, ascorbic acid]
Eosinophils ([4]; 50 mg/kg): 5.5 ± 0.5 cell × 10^6/animal | Macrophages ([4]; 50 mg/kg): 9.5 ± 0.9 cell × 10^6/animal | Neutrophils ([4]; 50 mg/kg): 5.4 ± 0.6 cell × 10^5/animal | Eosinophils ([4]; 100 mg/kg): 5.5 ± 0.8 cell × 10^6/animal | Macrophages ([4]; 100 mg/kg): 9.8 ± 0.9 cell × 10^6/animal | Neutrophils ([4]; 100 mg/kg): 5.6 ± 0.8 cell × 10^5/animal | Eosinophils ([4]; 200 mg/kg): 4.8 ± 1.1 cell × 10^6/animal | Macrophages ([4]; 200 mg/kg): 9.2 ± 0.8 cell × 10^6/animal | Neutrophils ([4]; 200 mg/kg): 5.0 ± 0.8 cell × 10^5/animal | Eosinophils ([4]; 400 mg/kg): 3.5 ± 0.9* cell × 10^6/animal | Macrophages ([4]; 400 mg/kg): 7.2 ± 1.5* cell × 10^6/animal | Neutrophils ([4]; 400 mg/kg): 4.7 ± 0.9 cell × 10^5/animal | protection against OV-induced asthma ([4]; components used separately: 10 mg/kg AX, 200 mg/kg vit C, 10 mg/kg GB): failed to protect; also recorded: failed to reduce the severity of asthma | cAMP ([5]; 50 mg/kg): 6.8 ± 0.5 pmol (mg protein)^−1 | cGMP ([5]; 50 mg/kg): 1.1 ± 0.2 pmol (mg protein)^−1 | cAMP ([5]; 100 mg/kg): 7.1 ± 0.8 pmol (mg protein)^−1 | cGMP ([5]; 100 mg/kg): 1.0 ± 0.2 pmol (mg protein)^−1 | cAMP ([5]; 200 mg/kg): 7.9 ± 0.9 pmol (mg protein)^−1 | cGMP ([5]; 200 mg/kg): 1.2 ± 0.2 pmol (mg protein)^−1 | cAMP ([5]; 400 mg/kg): 7.9 ± 0.8 pmol (mg protein)^−1 | cGMP ([5]; 400 mg/kg): 1.5 ± 0.2 pmol (mg protein)^−1
